Numbers after ± are expanded uncertainties.
Key:
[1] = Crystal; DTA
[2] = Molar enthalpy of transition or fusion; conditions: Crystal; DSC

Normal melting temperature [1]: 156.50 ± 0.5 °C | Molar enthalpy of transition or fusion [2]: 7.34 ± 0.215 kcal/mol
SMILES: CC(C)(c1ccc(O)cc1)c1ccc(O)cc1 [2,2-(4',4''-dihydroxy)diphenylpropane]

Source: the NIST ThermoML archive (doi:10.1021/je200640q)
